As a reminder, the Ki is the dissociation constant of the complex between target and ligand, obtained from inhibition or displacement. Read a high Ki as lower affinity. The term Kd denotes the constant that tells how readily two partners part at equilibrium.

“Also recorded” adds a separate entry of the source. Counter-ions that a name gives are not always drawn.

Data on 30 compounds can be found in patent US6635668B1, “Imidazoline receptor binding compounds” (The University of North Carolina at Chapel Hill, priority 1998, dated 2003).

For experiment [1], the target named is imidazoline I2 sites. Description: Competition binding of 5 nM [3H]idazoxan to rat liver membranes. The settings on record: for Ki: 5 nM [3H]idazoxan (Kd 14 ± 2 nM), mean ± SD, compounds 4 and 8 mean ± 95% confidence intervals; for Hill Slope: inhibition of [3H]idazoxan binding. As for the experimental part: Membrane preparation. Membranes were prepared in accordance with known techniques (R. Zonnenchein et al., Eur. J. Pharmacol. 190, 203-215 (1990)). […] The livers were weighed and minced with scissors before being homogenized at 4° C. in solution A (0.25 M sucrose containing 0.1 mM phenylmethyl sulfonyl fluoride 1:10 v/v) for 1 min using a Biospec homogenizer (Bartlesville, Okla., USA). The homogenate was centrifuged at 600×g for 10 min at 4° C. The resulting pellet was washed with solution A, discarded and the supernatant fractions were combined and centrifuged at 12,000×g for 30 min. This pellet was washed then resuspended in cold buffer B (50 mM Tris/HCl pH 7.4). Using a Bio-Rad (Hercules, Calif., USA) assay kit, the protein concentration was determined using bovine serum albumin as the standard according to the assay of Bradford et al. (Bradford, M. M., 1976. Anal. Biochem. 72, 248-254.). The preparation was stored at −80° C. at a concentration of 20 mg protein/ml. Competition binding studies. Competition experiments were performed in 1 ml buffer B containing 5 nM [^3H]idazoxan. […] In all experiments, bound and free radioligand were separated by vacuum filtration through Whatman GF/C filters and washed with 2×10 ml cold buffer B. Radioactivity on filters was determined by liquid scintillation spectroscopy using a Packard Tri-Carb 2100TR. […] Data analysis. Binding analyses, statistics and graphics were performed using Prism 2.01 (Graphpad Software, Inc., San Diego, Calif., USA). […] The calculated log of the octanol:water partition coefficient (ClogP) was calculated using MedChem Software 3.5 (Daylight Chemical Information Systems, New Orleans, La., USA).

A further experiment concerns the target imidazoline receptor. Description: Imidazoline receptor binding (Tables 2 and 3). The settings on record: Table 2.
In a further experiment the test system is Pneumocystis carinii. As to the kind of experiment: Anti-Pneumocystis carinii activity, P. carinii pneumonia in the rat. The experiment is classed as in vivo. The settings on record: for anti-P. carinii activity (in words): rat, compared with pentamidine. As for the experimental part: Anti-Pneumocystis carinii activity. Induction, treatment and evaluation of P. carinii pneumonia in the rat was carried out according to methods described previously (Jones, S. K. et al., Antimicrob. Agents Chemother. 34, 1026-1030 (1990)). To summarize the scoring procedure, the mean histologic scores were determined by two examiners using a blinded protocol. P. carinii cysts were counted in the stained lung sections and assigned the following values; 0.5—less than 10 cysts counted per two fully examined sections; 1—scattered cysts with less than 10% of the lung tissue involved; 2—scattered cysts with limited intense focal involvement and 10 to 25% of lung tissue involved; 3—scattered cysts with numerous intense areas of focal involvement and 26 to 50% of lung tissue involved; 4—cysts found throughout the tissue with numerous intense focal areas of involvement having greater than 50% of lung tissue involved.

The target in experiment [2] is imidazoline I2 sites. Description: [3H]Idazoxan saturation binding in rat liver membranes. The settings on record: 22° C., 45 min, read-out: Kd for saturable binding. How it is done: Membrane preparation. Membranes were prepared in accordance with known techniques (R. Zonnenchein et al., Eur. J. Pharmacol. 190, 203-215 (1990)). Briefly, male Sprague-Dawley rats (Hilltop, Scottsdale, Pa., USA) weighing approximately 250-300 g were decapitated, their livers rapidly removed and immediately placed into 0.25 M cold sucrose solution. The livers were weighed and minced with scissors before being homogenized at 4° C. in solution A (0.25 M sucrose containing 0.1 mM phenylmethyl sulfonyl fluoride 1:10 v/v) for 1 min using a Biospec homogenizer (Bartlesville, Okla., USA). The homogenate was centrifuged at 600×g for 10 min at 4° C. The resulting pellet was washed with solution A, discarded and the supernatant fractions were combined and centrifuged at 12,000×g for 30 min. This pellet was washed then resuspended in cold buffer B (50 mM Tris/HCl pH 7.4). Using a Bio-Rad (Hercules, Calif., USA) assay kit, the protein concentration was determined using bovine serum albumin as the standard according to the assay of Bradford et al. (Bradford, M. M., 1976. Anal. Biochem. 72, 248-254.). The preparation was stored at −80° C. at a concentration of 20 mg protein/ml. Saturation binding studies. Binding studies were performed in triplicate in 1 ml buffer B containing [^3H]idazoxan (0.1-50 nM). […]

For `N=C(N)c1ccc(OCCCCCOc2ccc([N+](=O)[O-])cc2)cc1` [Compound 8], at imidazoline I2 sites [1], the Ki worked out at 62 ± 25 nM and the “Hill Slope” value is −0.8.

For the compound `N=C(N)c1cccc(OCCCCCOc2cccc(C(=N)N)c2)c1` [001 KAO 011], the affinity at imidazoline receptor, expressed as Ki, was 158 nM.

As to `N=C(N)c1ccc2[nH]c3ccc(C(=N)N)cc3c2c1` [003 KAO 111], the inhibition constant (Ki) on imidazoline receptor is 44700 nM.

For `N=C(N)c1ccc(O)cc1` [Compound 11, 4-hydroxybenzamidine], the “anti-P. carinii activity (in words)” value in the experiment on Pneumocystis carinii was “no activity at all”. Besides, at imidazoline I2 sites [1], the inhibitory constant (Ki) was approximately 30000 nM and the “Hill Slope” value was −0.3.

On imidazoline receptor, `c1cc2[nH]c(CCCCc3nc4cc(C5=NCCN5)ccc4[nH]3)nc2cc1C1=NCCN1` [BIBB] had a Ki of 44800 nM.

`N=C(N)c1ccc2c(c1)[nH]c1cc(C(=N)N)ccc12` [DAP 092] gave a Ki at imidazoline receptor of 18100 nM.

Take `N=C(N)c1ccc(-c2ccc(-c3ccc(C(=N)N)cc3)s2)cc1` [DB 351]: the Ki at imidazoline receptor worked out at 111 nM.

On to `N=C(N)c1ccc(OCCCOc2ccc(C(=N)N)cc2)cc1` [Compound 7], for which the “Hill Slope” value in the experiment with imidazoline I2 sites [1] is recorded as −0.8.

As to `N=C(N)c1ccccc1` [Compound 12, benzamidine], at imidazoline I2 sites [1], the inhibition constant Ki was 580 ± 61.3 nM and the “Hill Slope” value is reported as −0.8.

Compound `c1ccc(C2CC2)c(OCC2=NCCN2)c1` [Cirazoline, cirazoline, reference compound] registered a Ki at imidazoline I2 sites [1] of 3 ± 0.4 nM.

In the case of `c1cc(C2=NCCN2)ccc1OCCCCCOc1ccc(C2=NCCN2)cc1` [Compound 3], in the experiment on Pneumocystis carinii, the “anti-P. carinii activity (in words)” value is on record as “greater than pentamidine”. On imidazoline I2 sites [1], the inhibitory constant (Ki) was determined as 4.3 ± 1.09 nM and the “Hill Slope” value is reported as −0.8.

As to `N=C(N)c1ccc2[nH]c(CCCCc3nc4cc(C(=N)N)ccc4[nH]3)nc2c1` [BABB], the affinity at imidazoline receptor, expressed as Ki, was 5530 nM.

`N=C(N)c1ccc(-c2ccc(-c3ccc(C(=N)N)cc3)o2)cc1` [DB 75]: affinity on imidazoline receptor was put at a Ki of 653 nM. This Ki lies about 8.5-fold lower than the previous one.

Consider `N=C(NC1CCCC1)c1ccc(-c2ccc(-c3ccc(C(=N)NC4CCCC4)cc3)o2)cc1` [DB 244], for which the Ki at imidazoline receptor is 6760 nM.

As to `N=C(N)c1ccc(OCCCCCCOc2ccc(C(=N)N)cc2)cc1` [Compound 2], the “anti-P. carinii activity (in words)” value with Pneumocystis carinii is recorded as “greater than pentamidine”. On imidazoline I2 sites [1], the Ki turned out to be 3.2 ± 0.36 nM and the “Hill Slope” value is reported as −1.2.

With `[3H]c1cc2c(cc1[3H])OC(C1=NCCN1)CO2` (stereo not drawn) [[^3H]idazoxan, (1,4-[6,7-^3H]-benzodioxan-2-yl)-2-imidazoline hydrochloride], on imidazoline I2 sites [2], the Kd stood at 14 ± 2 nM.

As to `COc1ccc(C(=N)N)cc1` [Compound 10, 4-methoxybenzamidine], on imidazoline I2 sites [1], the affinity corresponds to a Ki of 228 ± 36.5 nM and the “Hill Slope” value was −0.8.

For `N=C(N)c1ccc(OCCCCOc2ccc(C(=N)N)cc2)cc1` [Compound 4], the “anti-P. carinii activity (in words)” value in the experiment on Pneumocystis carinii is recorded as “greater than pentamidine”. Moreover, the “Hill Slope” value in the experiment on imidazoline I2 sites [1] is −0.8.

Turning to `COc1cc(C2=NCCN2)ccc1OCCCOc1ccc(C2=NCCN2)cc1OC` [Compound 5], the “anti-P. carinii activity (in words)” value with Pneumocystis carinii is on record as “greater than pentamidine; also recorded: equally effective”. Also, on imidazoline I2 sites [1], the inhibition constant Ki was 50.1 ± 1.06 nM and the “Hill Slope” value is −0.9.

In turn, `N=C(N)c1ccc2[nH]c(-c3ccc4[nH]c(-c5ccc(O)cc5)nc4c3)nc2c1` [DB 183] registered a Ki on imidazoline receptor of 65600 nM.

At imidazoline receptor, `N=C(N)c1ccc2[nH]c(Cc3nc4cc(C(=N)N)ccc4[nH]3)nc2c1` [BABIM] had an inhibition constant (Ki) of 7510 nM.

On to `COc1cc(C(=N)N)ccc1OCCCOc1ccc(C(=N)N)cc1OC` [Compound 6], for which, in the experiment on Pneumocystis carinii, the “anti-P. carinii activity (in words)” value is recorded as “greater than pentamidine; also recorded: equally effective”. Further, on imidazoline I2 sites [1], the inhibition constant Ki was approximately 3500 nM and the “Hill Slope” value was −0.9.

The compound `CC(C)NC(=N)c1ccc(-c2ccc(-c3ccc(C(=N)NC(C)C)cc3)o2)cc1` [DB 181] had a Ki on imidazoline receptor of 5500 nM.

On imidazoline receptor, `N=C(N)c1ccc(-c2ccc(-c3ccc(C(=N)N)cc3)[nH]2)cc1` [DB 262] registered an inhibition constant Ki of 3780 nM.

In the experiment with Pneumocystis carinii (rat lung sections, saline control 3.8 out of a possible 4.0), `N=C(N)c1ccc(OCCCCCOc2ccc(C(=N)N)cc2)cc1` [Compound 1, pentamidine, reference compound] returned a mean histologic score of 1.3. At imidazoline I2 sites [1], the inhibition constant Ki was found to be 1.4 ± 0.22 nM and the “Hill Slope” value is listed as −0.8.

In the case of `c1cc(-c2ccc(-c3ccc(C4=NCCN4)cc3)o2)ccc1C1=NCCN1` [DB 60], the inhibitory constant (Ki) on imidazoline receptor amounted to 630 nM.

For the compound `N=C(N)c1ccc2nc(C3=CCC=C(c4nc5ccc(C(=N)N)cc5[nH]4)N3)[nH]c2c1` [DB 205], the inhibition constant Ki at imidazoline receptor was 347000 nM.

For `c1cc(-c2ccc(-c3ccc(C4=NCCCN4)cc3)o2)ccc1C1=NCCCN1` [DB 103], on imidazoline receptor, the Ki amounted to 236 nM.

Take `Cc1ccc(N(CC2=NCCN2)c2cccc(O)c2)cc1` [Phentolamine, phentolamine, reference compound]: the inhibition constant (Ki) on imidazoline I2 sites [1] was more than 5000 nM.

In the case of `N=C(N)c1ccc(OCCCCCO)cc1` [Compound 9], the “anti-P. carinii activity (in words)” value in the experiment with Pneumocystis carinii was “no activity at all”. On imidazoline I2 sites [1], the inhibition constant (Ki) came to 319 ± 39.5 nM and the “Hill Slope” value was −0.8.
